Assay [1] deals with T1, RNF213 (Mus musculus, UniProt E9Q555).
T1 construct: full-length recombinant protein, about 600 kDa, N-terminal Strep(II) tag in the pulldown construct
Put plainly: UBE2L3~Ub discharge assay. It is filed as biochemical. As to conditions: activator; 1 mM nucleotide, 0.025 μM E3, 20 μM E2~Ub.

Assay [2] concerns the target T2, RNF213 (Mus musculus, UniProt E9Q555, E2449Q/E2806Q).
T2 construct: full-length recombinant protein, about 600 kDa, N-terminal Strep(II) tag in the pulldown construct
The assay can be described thus: cryo-EM structure, […] Å. As to conditions: ATP modelled in AAA4, AAA3 empty; WB34 mutant. It is filed as binding.

Assay [3] addresses T3, RNF213 (∆N338) (Mus musculus, UniProt E9Q555).
T3 construct: N-terminal 338 residues deleted (∆N338), recombinant; biotin UBE2L3~Ub activity-based probe as read-out
Put plainly: activation of RNF213 labelling by biotin UBE2L3~Ub activity-based probe, blot quantification. It is filed as biochemical.

Assay [4] concerns the target T4, RNF213-UBE2L3~Ub complex (RNF213-ABP) (Mus musculus, UniProt E9Q555).
T4 construct: full-length murine RNF213 covalently linked at Cys4462 to human UBE2L3~Ub activity-based probe; ubiquitin and RZ domain not resolved; with Ubiquitin-conjugating enzyme E2 L3 (Homo sapiens); Ubiquitin (Homo sapiens)
Put plainly: cryo-EM structure, […] Å. The assay is classed as binding. As to conditions: ADP modelled in AAA3 and AAA4; ATPγS-stimulated labelling reaction applied directly to grid.

The target of assay [5] is T3, RNF213 (∆N338). The assay can be described thus: antagonism of ATPγS-dependent activation, ABP labelling. As to conditions: 900 μM ADP against ATPγS titration; pH 7.5, 2.5 mM MgCl2, 30 °C. It is filed as biochemical.

The results in this text go back to article PMC12075652, “ATP functions as a pathogen-associated molecular pattern to activate the E3 ubiquitin ligase RNF213” (Nature Communications, 2025).

Structures are written as SMILES.

With `Nc1ncnc2c1ncn2[C@@H]1O[C@H](COP(=O)(O)OP(=O)(O)OP(=O)(O)O)[C@@H](O)[C@H]1O` [ATP], the “UBE2L3~Ub discharge assay” value at RNF213 [1] is on record as “E3 activity was enhanced by ATP, but not by ADP or AMP”. In addition, the “cryo-EM structure, 4.5 Å” value at RNF213 [2] is reported as “Although ATP could be modeled into AAA4, AAA3 was empty”.

On RNF213 (∆N338) [3], `Nc1ncnc2c1ncn2[C@@H]1O[C@H](COP(=O)(O)OP(=O)(O)OP(O)(O)=S)[C@@H](O)[C@H]1O` [ATPγS] showed an EC50 of 85 µM. Moreover, the “UBE2L3~Ub discharge assay” value on RNF213 [1] is “(ATPγS) and adenylyl-imidodiphosphate (AMP-PNP) also stimulated E2~Ub discharge”.

`Nc1ncnc2c1ncn2[C@@H]1O[C@H](COP(=O)(O)OP(=O)(O)NP(=O)(O)O)[C@@H](O)[C@H]1O` [AMP-PNP]: the “UBE2L3~Ub discharge assay” value on RNF213 [1] was “(ATPγS) and adenylyl-imidodiphosphate (AMP-PNP) also stimulated E2~Ub discharge”.

With `Nc1ncnc2c1ncn2[C@@H]1O[C@H](COP(=O)(O)OP(=O)(O)O)[C@@H](O)[C@H]1O` [ADP], in assay [4], the “cryo-EM structure, 3.8 Å” value was “new density at the AAA3 and AAA4 sites allowed modeling of ADP”. Further, the “antagonism of ATPγS-dependent activation, ABP labelling” value on RNF213 (∆N338) [5] is “These data suggest that ADP inhibits ATP-dependent activation”.
